{"source": "patent US20090325984A1", "about": "“USE OF 1,7-DIMETHYLXANTHINE FOR THE MANUFACTURE OF A NON-ANXIOGENIC PSYCHOANALEPTIC DRUG FOR THE TREATMENT OF A NEUROPSYCHIATRIC DISORDER” (Pierre Fabre Medicament, priority 2006, published 2009)", "assay_type_in_all_cases": "in vivo", "key": {"male CD1 albino mice [1]": {"test_system": "male CD1 albino mice", "test": "Raised cross-shaped labyrinth test in the mouse", "conditions": "for anxiogenic effect in the raised cross-shaped labyrinth test / number of times the mice entered the open arm: 50 mg/kg; for number of times the mice entered the open arm: five minutes recording", "text": "The raised cross-shaped labyrinth test measures the animals' anxiety level based on its spontaneous aversion to voids (80). The apparatus is composed of four arms, placed at right angles, each measuring 18×6 cm; it rests on a pedestal 60 cm above the floor. Two of the arms have 6 cm-high side walls and are laid out end to end; these are the “closed” arms. […] After receiving their injections, the animals were isolated for twenty minutes and then placed in the labyrinth, at the center of the cross, with their head in the direction of a closed arm. Movements by the animals were recorded for five minutes by a video camera connected to image analysis software (Videotrack). The labyrinth was cleaned after each animal's test."}, "male CD1 albino mice [2]": {"test_system": "male CD1 albino mice", "test": "Locomotor activity (horizontal and vertical) in the mouse", "protocol": "The animals were placed in groups of 20 in plexiglass cages (38×24×18 cm) and kept in a ventilated animal facility where the temperature was maintained at 21±1° C. The animals had free access to water and food; artificial lighting established a day/night cycle (daytime between 7:00 a.m. and 7:00 p.m.). Experiments were conducted between 11:00 a.m. and 6:00 p.m. […] The solutions were stabilized with Cremophor EL (Sigma) to a final concentration of 15%. The solutions were injected by intraperitoneal route in a dose of 10 ml/kg. Before each test, the animals were isolated for 20 minutes in plexiglass cages (27×13×13 cm); they had food at their disposal. […] Photoelectric sensors in the chambers measured the horizontal and vertical activity of the animals, expressed as the number of interrupted beams, and the data was analyzed using a software application (Omnitech Electronics Inc., Columbus, Ohio, USA). […] Animals were placed in the activity monitoring system immediately after receiving the injection. The chambers were cleaned after each animal's test."}, "male CD1 albino mice [3]": {"test_system": "male CD1 albino mice", "test": "Hole-board test in the mouse", "conditions": "50 mg/kg; for number of edges explored / number of holes explored: 20 minutes after injection, vs solvent", "protocol": "The hole-board test investigates curiosity and is negatively affected by anxiety. This apparatus, placed 60 cm above the floor, consists of a square platform of opaque plastic, 40 cm on each side, with 16 evenly distributed holes of such size that an animal is able to pass its head through. The animals were injected and then isolated for 20 minutes before being placed at the center of the platform. The number of holes and edges explored by each animal was counted. The apparatus was cleaned after each animal's test."}, "male CD1 albino mice [4]": {"test_system": "male CD1 albino mice", "test": "Black-white box test in the mouse", "conditions": "50 mg/kg; for amount of time spent in the lighted compartment: 20 minutes after injection, vs controls", "protocol": "The black-white box test measures the state of anxiety of animals as a function of their aversion to light. The apparatus consists of two compartments of the same size (length=21 cm, width=15 cm, height=25 cm), one painted white and illuminated by a 40 W bulb, the other painted black and closed with a cover. The animal can pass from one compartment to the other via to an opening 5 cm-square in the lower portion of the partition. After the injection, the animals were isolated for 20 minutes and then placed in the black compartment with their head facing the corner opposite the opening. Using a mirror placed above the apparatus, the time before first entering the lit compartment, the number of times entering and the time spent in the lighted compartment were measured. The two compartments were cleaned between each test."}, "male Wistar rats": {"test_system": "male Wistar rats", "test": "Vogel conflict test in the rat", "conditions": "intraperitoneal, 1, 10, 25 and 50 mg/kg", "protocol": "Experiments were performed using male Wistar rats weighing 180 g to 280 g according to the procedure described by Vogel et al. (Psychopharmacologia, 1971, 21: 1-7). Animals were deprived of water for 48 hours and then individually placed in a plexiglass chamber (15×32×34 cm) whose floor consisted of conducting metal bars spaced 1 cm apart. In the center of one of the chamber's walls was placed a metal cup connected to an electric shock generator (1.7 mA; 1 s).\nDuring the test, the animal, which is left free to explore the apparatus, receives an electric shock each time it consumes water from the cup. A researcher blind to the treatment received by the animal counts the number of times that the animal consumes water and is punished by the electric shock. An increase in the number of times an animal consumes water indicates an anxiolytic effect, whereas a reduction in this number indicates an anxiogenic effect.\n(§1) Paraxanthine was dissolved under heating in sodium benzoate (30 mg/ml) with the addition of Cremophor EL to a final concentration of 15% and administered by intraperitoneal route at doses of 1 mg/kg, 10 mg/kg, 25 mg/kg and 50 mg/kg. Clobazam was used as the reference anxiolytic; it was dispersed in a 0.2% hydroxypropylmethylcellulose solution and administered by intraperitoneal route at a dose of 32 mg/kg."}, "NMRI mice": {"test_system": "NMRI mice", "test": "Four-plate test in the mouse", "conditions": "intraperitoneal, 25 mg/kg (P<0.05)", "protocol": "Experiments were performed using NMRI mice weighing 20 g to 30 g according to the method described by Aron et al. (Neuropharmacology, 1971, 10:459-469). Animals were placed in a plastic chamber whose floor consisted of four metal plates independently connected to an electric shock generator (2.5 mA; 1.5 s). The animal is initially left free to explore the apparatus for 15 seconds, after which it receives an electric shock each time it crosses between two metal plates. An increase in the number of crossings indicates anxiolytic activity, whereas a reduction in this number indicates anxiogenic activity.\nas §1, with “16” for “32”"}}, "note": "Entries after “also recorded” stand apart in the source; their conditions may differ.", "data": [{"smiles": "Cn1c(=O)c2c(ncn2C)n(C)c1=O", "note": "[caffeine, 1,3,7-Trimethylxanthine]", "values": [{"measurement": "anxiogenic effect in the raised cross-shaped labyrinth test", "setting": "male CD1 albino mice [1]", "result": "is anxiogenic; also recorded: has an anxiogenic effect"}, {"measurement": "number of times the mice entered the open arm", "setting": "male CD1 albino mice [1]", "result": "reduced the number of times the mice entered the open arm"}, {"measurement": "duration of stimulation of horizontal locomotor activity", "setting": "male CD1 albino mice [2]; intraperitoneal, 10 mg/kg", "result": "at least one hour"}, {"measurement": "vertical locomotor activity", "setting": "male CD1 albino mice [2]; intraperitoneal, 10 mg/kg, significant only 30 minutes after the injection (P<0.05)", "result": "stimulated the animals' vertical locomotor activity"}, {"measurement": "horizontal locomotor activity", "setting": "male CD1 albino mice [2]; intraperitoneal, 10 mg/kg, within the first 10 minutes (P<0.05)", "result": "stimulated animals' horizontal locomotor activity"}, {"measurement": "duration of stimulation of horizontal locomotor activity", "setting": "male CD1 albino mice [2]; intraperitoneal, 25 mg/kg", "result": 40, "unit": "min"}, {"measurement": "horizontal locomotor activity", "setting": "male CD1 albino mice [2]; intraperitoneal, 25 mg/kg, 10 minutes after the injection (P<0.05)", "result": "stimulated this activity"}, {"measurement": "duration of decrease of vertical activity", "setting": "male CD1 albino mice [2]; intraperitoneal, 100 mg/kg", "result": 40, "unit": "min"}, {"measurement": "vertical locomotor activity", "setting": "male CD1 albino mice [2]; intraperitoneal, 100 mg/kg, from the first measurement period (P<0.05)", "result": "vertical activity decreased relative to that of the controls"}, {"measurement": "horizontal activity for one hour (cumulative)", "setting": "male CD1 albino mice [2]; intraperitoneal, 60 minutes", "result": "stimulated by caffeine only at doses of 10 mg/kg (P<0.01) and 25 mg/kg (P<0.05)"}, {"measurement": "horizontal locomotor activity", "setting": "male CD1 albino mice [2]; intraperitoneal, doses lower than 10 mg/kg or higher than 25 mg/kg, vs solvent alone", "result": "no significant difference"}, {"measurement": "range of doses with stimulating effect on locomotor activity", "setting": "male CD1 albino mice [2]; same conditions", "result": "10 to 25", "unit": "mg/kg"}, {"measurement": "stimulating effect on locomotor activity compared with paraxanthine", "setting": "male CD1 albino mice [2]; same conditions", "result": "the effect is less"}, {"measurement": "anxiogenic effect in the hole-board test", "setting": "male CD1 albino mice [3]", "result": "has an anxiogenic effect; also recorded: had an anxiogenic effect"}, {"measurement": "number of edges explored", "setting": "male CD1 albino mice [3]", "result": "significantly decreased"}, {"measurement": "number of holes explored", "setting": "male CD1 albino mice [3]", "result": "significantly decreased"}, {"measurement": "anxiolytic effect in the black-white box test", "setting": "male CD1 albino mice [4]", "result": "does not; also recorded: did not have an anxiolytic effect"}, {"measurement": "amount of time spent in the lighted compartment", "setting": "male CD1 albino mice [4]", "result": "did not change"}]}, {"smiles": "Cn1c(=O)[nH]c2ncn(C)c2c1=O", "note": "[paraxanthine, 1,7-dimethyl-3,7-dihydro-1H-purine-2,6-dione]", "values": [{"measurement": "anxiogenic effect in the raised cross-shaped labyrinth test", "setting": "male CD1 albino mice [1]", "result": "not the case"}, {"measurement": "anxiolytic effect in the raised cross-shaped labyrinth test", "setting": "male CD1 albino mice [1]; 50 mg/kg (high doses)", "result": "has an anxiolytic effect"}, {"measurement": "number of times the mice entered the open arm", "setting": "male CD1 albino mice [1]", "result": "had no effect"}, {"measurement": "time spent by the animals in the open arm", "setting": "male CD1 albino mice [1]; increasing doses from 1 mg/kg to 50 mg/kg (P<0.05 at 50 mg/kg)", "result": "increased until a significant effect was exhibited at a dose of 50 mg/kg"}, {"measurement": "stimulating effect on locomotor activity", "setting": "male CD1 albino mice [2]; doses from 1 mg/kg up to 50 mg/kg", "result": "dose-dependant stimulating effect"}, {"measurement": "duration of stimulation of horizontal locomotor activity", "setting": "male CD1 albino mice [2]; intraperitoneal, 1 mg/kg", "result": 30, "unit": "min"}, {"measurement": "horizontal locomotor activity", "setting": "male CD1 albino mice [2]; intraperitoneal, 1 mg/kg, from the first 10-minute measurement period, vs solvent (P<0.05 or P<0.01)", "result": "stimulated horizontal locomotor activity"}, {"measurement": "vertical locomotor activity", "setting": "male CD1 albino mice [2]; intraperitoneal, comparable to horizontal activity, effect of 1 mg/kg more difficult to demonstrate", "result": "stimulated the animals' vertical locomotor activity"}, {"measurement": "duration of stimulation of horizontal locomotor activity", "setting": "male CD1 albino mice [2]; intraperitoneal, doses higher than 1 mg/kg", "result": "at least one hour"}, {"measurement": "horizontal locomotor activity", "setting": "male CD1 albino mice [2]; intraperitoneal, doses higher than 1 mg/kg (P<0.01 or P<0.001)", "result": "the effect was more marked"}, {"measurement": "anxiogenic effect in the Vogel conflict test", "setting": "male Wistar rats", "result": "did not have an anxiogenic effect; also recorded: did not demonstrate an anxiogenic effect"}, {"measurement": "number of times animals consumed water", "setting": "male Wistar rats", "result": "did not decrease"}, {"measurement": "anxiolytic activity (number of crossings between two plates)", "setting": "NMRI mice", "result": "has anxiolytic activity; also recorded: exhibited anxiolytic activity"}, {"measurement": "anxiogenic effect in the hole-board test", "setting": "male CD1 albino mice [3]", "result": "not the case; also recorded: did not"}, {"measurement": "number of edges explored", "setting": "male CD1 albino mice [3]", "result": "did not have any effect"}, {"measurement": "number of holes explored", "setting": "male CD1 albino mice [3]", "result": "did not have any effect"}, {"measurement": "anxiolytic effect in the black-white box test", "setting": "male CD1 albino mice [4]", "result": "has an anxiolytic effect; also recorded: exhibited an anxiolytic effect"}, {"measurement": "amount of time spent in the lighted compartment", "setting": "male CD1 albino mice [4]", "result": "increased the amount of time spent in the lighted compartment"}, {"measurement": "number of times entering the lighted compartment", "setting": "male CD1 albino mice [4]; vs animals treated with caffeine (P<0.05)", "result": "went into the lighted compartment more often than animals treated with caffeine"}]}]}
